Laboratory results as given in patent publication US20240391931A1 (Bristol-Myers Squibb Company, priority 2021, published 2024).

Columns and labels:
[1] = target: T1, HER2 wildtype (WT) protein (Homo sapiens, UniProt P04626); test: HER2 signaling (pHER2 Tyr1248/total HER2 MSD) in N87 cells; assay type: cell-based; settings: 1.5 hr compound, 1% FBS
T1 construct: BT474 and N87 cell lines which endogenously overexpress the HER2 wildtype (WT) protein; endogenous in cells; host or cells: BT474, N87
Description: (§1) In addition to the engineered cell lines, the following cell lines were used: BT474 (human breast carcinoma), N87 (human gastric carcinoma), NCI-H1781 (human lung adenocarcinoma), and A431 (human epidermoid carcinoma); all cell lines were obtained from the American Type Culture Collection (ATCC, Manassas, VA). NCI-H1781 were grown in complete RPMI 1640 (Life Technologies, Carlsbad, CA) supplemented with 15% fetal bovine serum (FBS, Life Technologies, Carlsbad, CA) and 1% Penicillin-Streptomycin (P/S, Life Technologies, Carlsbad, CA). N87 cells were grown in complete RPMI 1640 supplemented with 10% FBS and 1% P/S. BT474 and A431 cells were grown in DMEM (Life Technologies, Carlsbad, CA) supplemented with 10% FBS and 1% P/S. All cells were maintained and propagated in a humidified 5% CO2 incubator at 37° C.
(§2) HER2 signaling was assessed in BT474 and N87 cell lines which endogenously overexpress the HER2 wildtype (WT) protein, in NCI-H1781 cells which endogenously expresses a HER2 mutant protein containing a VC insertion in the kinase domain (HER2VC or G776delinsVC), and in engineered cell lines transduced to express the Her2 mutant protein containing the YVMA insertion (Hek293-HER2YVMA and BEAS2B-HER2YVMA).
(§3) BT474, N87, and NCI-H1781 were plated in 96-well tissue-culture treated plates (Corning Costar, Sigma-Aldrich) in full media and incubated overnight. Hek293-HER2YVMA and BEAS2B-HER2YVMA cells were plated in 96-well poly-D-lysine treated plates (BD Bioscience, San Jose, CA). For treatment with test compounds, the media was replaced with corresponding low serum media (1% FBS) containing test compound at 1.1, 0.37, 0.12, 0.041, 0.014, 0.005, 0.0014, 0.0005 μM or DMSO control (0.1%). Cells were incubated with compound for 1.5 hr at 37° C. After compound treatment, the media was removed and cells were lysed for 30 min on ice in complete MSD lysis buffer (prepared using MSD base lysis buffer (Meso-Scale Discovery) supplemented with cOmplete, EDTA-free Protease inhibitor cocktail (Roche), Phosphatase Inhibitor Cocktails 2 and 3 (Sigma-Aldrich), and 1 mM PMSF (Sigma-Aldrich)). Lysates were stored at −70° C. until further analysis.
(§4) HER2 signaling was evaluated using phospho (Tyr1248)/total ErbB2 whole cell lysate MSD plates (Meso-Scale Discovery, Gaithersburg, MD). The phospho HER2 signal was normalized to total HER2 for each sample; results are reported as % DMSO control. The normalized data was fitted using a sigmoidal curve analysis program (Graph Pad Prism version 6) with variable Hill slope to determine EC50 values.
(§5) The HER2 signaling results are provided in Table 4, under columns titled “BT474-pHER2 EC50”, “N87-pHER2 EC50”, and “NCI-H1781-pHER2 EC50”. Hek293-HER2YVMA ins fall under the heading “HEKYVMA-pHER2 EC50”, Ba/F3 HER2YVMA fall under the heading “Ba/F3 YVMA-pHER2 EC50” and BEAS2B-HER2YVMA fall under the heading “BEAS2B YVMA-pHER2 EC50”.

[2] = test system: BT474 cells; test: Cellular proliferation in BT474 cells (CellTiter Glo); assay type: cell-based, human; settings: 120 h, redosed after 72 h
Description: as §1
(§6) Cell proliferation in adherent cells was investigated in two HER2 amplified cell lines (BT474, N87), and a HER2VC expressing cell line (NCI-H1781). BT474, NCI-H1781, and N87 were plated in their appropriate growth media supplemented with either 10% FBS (BT474, N87) or 15% FBS (NCI-H1781) and 1% P/S in 96-well white clear-bottom tissue culture plates (Costar, Sigma-Aldrich). The starting cell densities were 3500, 5500, and 5000 cells for BT474, NCI-H1781, and N87 cells, respectively. An 8-point standard curve with varying cell densities (starting at 50000 cells and serially diluting down 2-fold) was prepared for each cell line and read 6 h after plating. Cells were allowed to attach overnight prior to compound treatment. Compound solutions were prepared by serially diluting test compounds in DMSO (Sigma-Aldrich), then diluting 500× in their corresponding serum free media. Cells were treated by adding a 1:1 volume of test compound to a final concentration of […], 0.004, 0.0014, or 0.0005 μM, in 0.1% DMSO and 5% FBS (for BT474 and N87) or 7.5% FBS (NCI-H1781). In BT474 and NCI-H1781, cell media was replaced and cells were redosed with fresh test compound solutions after 72 h. Viability was determined by CellTiter Glo (Promega, Madison, WI) after 72 h for N87 cells, and after 120 h for BT474 and […] cells. The results were converted to cell numbers using a standard curve; growth inhibition (GI50 values) were determined by Graph Pad Prism. […] The results are provided in Table 4, under columns titled “BT474-GI50”, “N87-GI50”, and “NCI-H1781-GI50”.

[3] = test system: N87 cells; test: Cellular proliferation in N87 cells (CellTiter Glo); assay type: cell-based, human; settings: 72 h
Description: as §1, §6

[4] = target: T2, HER2VC (G776delinsVC) (Homo sapiens, UniProt P04626, G776C/INS775V); test: HER2 signaling (pHER2) in NCI-H1781 cells; assay type: cell-based; settings: 1.5 hr compound, 1% FBS
T2 construct: NCI-H1781 cells which endogenously expresses a HER2 mutant protein; endogenous in cells; host or cells: NCI-H1781
Description: as §1, §2, §3, §4, §5

[5] = test system: NCI-H1781 cells; test: Cellular proliferation in NCI-H1781 cells (CellTiter Glo); assay type: cell-based, human; settings: 120 h, redosed after 72 h
Description: as §1, §6

[6] = Homo sapiens, BT-474, BT474 cells
[7] = Homo sapiens, NCI-H1781, NCI-H1781 cells

T2 sequence (P04626 with tags, fused parts or gaps INS775V/G776C): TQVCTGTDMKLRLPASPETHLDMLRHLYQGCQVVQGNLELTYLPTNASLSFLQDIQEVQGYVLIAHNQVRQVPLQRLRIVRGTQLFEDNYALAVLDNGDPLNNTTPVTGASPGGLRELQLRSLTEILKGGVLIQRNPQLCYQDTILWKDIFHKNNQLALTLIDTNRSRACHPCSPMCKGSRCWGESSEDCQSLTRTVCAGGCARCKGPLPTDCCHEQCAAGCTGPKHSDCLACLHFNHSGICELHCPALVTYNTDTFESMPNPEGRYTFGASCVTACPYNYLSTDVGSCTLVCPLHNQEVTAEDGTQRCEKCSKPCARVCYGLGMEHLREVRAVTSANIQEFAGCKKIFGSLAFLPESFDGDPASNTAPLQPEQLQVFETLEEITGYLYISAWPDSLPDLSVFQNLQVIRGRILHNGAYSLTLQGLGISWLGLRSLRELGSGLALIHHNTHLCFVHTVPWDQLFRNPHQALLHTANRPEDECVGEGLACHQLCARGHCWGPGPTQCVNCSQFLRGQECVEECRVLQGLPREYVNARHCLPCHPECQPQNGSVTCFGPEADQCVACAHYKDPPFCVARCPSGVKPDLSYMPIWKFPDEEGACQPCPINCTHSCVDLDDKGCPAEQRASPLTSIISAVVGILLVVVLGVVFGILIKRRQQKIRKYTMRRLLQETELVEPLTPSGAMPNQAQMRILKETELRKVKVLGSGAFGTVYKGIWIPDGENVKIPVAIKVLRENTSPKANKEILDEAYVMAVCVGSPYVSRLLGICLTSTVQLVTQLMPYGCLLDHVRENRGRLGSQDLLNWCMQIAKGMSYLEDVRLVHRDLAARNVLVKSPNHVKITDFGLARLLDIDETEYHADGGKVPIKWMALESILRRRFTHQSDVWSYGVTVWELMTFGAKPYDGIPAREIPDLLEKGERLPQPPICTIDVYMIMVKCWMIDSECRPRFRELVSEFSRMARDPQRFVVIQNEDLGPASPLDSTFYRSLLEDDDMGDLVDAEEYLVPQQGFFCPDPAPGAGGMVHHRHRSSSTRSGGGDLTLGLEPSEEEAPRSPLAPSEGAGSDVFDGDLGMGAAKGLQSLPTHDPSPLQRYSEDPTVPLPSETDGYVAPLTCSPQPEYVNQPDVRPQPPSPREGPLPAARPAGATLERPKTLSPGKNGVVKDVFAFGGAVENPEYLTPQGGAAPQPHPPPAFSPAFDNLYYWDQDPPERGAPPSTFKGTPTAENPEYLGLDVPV
T1 sequence (P04626 23-1255): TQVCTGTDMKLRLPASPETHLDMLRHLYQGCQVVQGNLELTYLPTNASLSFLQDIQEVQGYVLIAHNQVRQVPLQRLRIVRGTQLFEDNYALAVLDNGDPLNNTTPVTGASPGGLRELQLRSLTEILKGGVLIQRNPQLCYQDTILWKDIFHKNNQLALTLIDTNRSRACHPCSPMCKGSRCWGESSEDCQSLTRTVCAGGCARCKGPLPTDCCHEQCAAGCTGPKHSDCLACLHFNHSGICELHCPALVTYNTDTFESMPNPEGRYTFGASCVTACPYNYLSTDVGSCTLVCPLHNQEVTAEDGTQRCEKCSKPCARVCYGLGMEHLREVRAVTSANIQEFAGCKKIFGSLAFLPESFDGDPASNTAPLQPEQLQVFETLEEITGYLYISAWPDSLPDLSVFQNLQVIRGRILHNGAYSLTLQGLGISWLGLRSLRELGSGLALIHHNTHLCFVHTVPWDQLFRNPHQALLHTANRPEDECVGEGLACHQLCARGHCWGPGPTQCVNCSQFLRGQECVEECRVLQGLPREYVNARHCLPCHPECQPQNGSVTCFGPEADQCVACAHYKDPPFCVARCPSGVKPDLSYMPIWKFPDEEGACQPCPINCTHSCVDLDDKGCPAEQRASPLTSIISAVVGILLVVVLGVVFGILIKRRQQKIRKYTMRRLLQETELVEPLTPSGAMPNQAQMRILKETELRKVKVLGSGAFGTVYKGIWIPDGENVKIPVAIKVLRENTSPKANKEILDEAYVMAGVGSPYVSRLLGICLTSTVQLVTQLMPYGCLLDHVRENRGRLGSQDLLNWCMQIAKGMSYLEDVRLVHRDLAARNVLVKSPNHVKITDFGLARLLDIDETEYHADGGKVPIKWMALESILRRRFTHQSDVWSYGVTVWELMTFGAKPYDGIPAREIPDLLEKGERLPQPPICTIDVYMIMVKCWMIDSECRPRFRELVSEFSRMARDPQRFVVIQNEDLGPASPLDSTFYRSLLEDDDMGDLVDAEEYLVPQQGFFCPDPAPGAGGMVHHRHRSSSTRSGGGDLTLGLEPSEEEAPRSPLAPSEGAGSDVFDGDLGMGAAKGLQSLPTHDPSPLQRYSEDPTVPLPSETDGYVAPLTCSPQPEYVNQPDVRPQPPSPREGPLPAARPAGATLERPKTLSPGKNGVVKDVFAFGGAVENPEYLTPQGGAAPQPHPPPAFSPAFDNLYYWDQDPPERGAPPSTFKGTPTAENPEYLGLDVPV

Cc1ccc(Oc2ccc(Nc3ncnc4sc5c(c34)C(C)CN(C(=O)C=CCN(C)C)C5)cc2C)cn1 (single isomer, unassigned) [Compound 105]
< 100 nM: EC50 [1] | GI50 [2, 6] | GI50 ([3]; Homo sapiens) | EC50 [4] | GI50 [5, 7]

Cc1ccc(Oc2ccc(Nc3ncnc4sc5c(c34)C(C)CN(C(=O)C=CCN(C)C)C5)cc2C)cn1 (single isomer, unassigned) [Compound 106]
< 100 nM: EC50 [1] | GI50 ([2]; BT474 cells) | GI50 [3] | EC50 [4] | GI50 ([5]; NCI-H1781 cells)

Cc1cc(Nc2ncnc3sc4c(c23)CCN(C(=O)/C=C/CN(C)C)C4)ccc1Oc1ccc2ncnn2c1 [Compound 3, (E)-1-(4-((4-([1,2,4]triazolo[1,5-a]pyridin-6-yloxy)-3-methylphenyl)amino)-5,8-dihydropyrido[4′,3′:4,5]thieno[2,3-d]pyrimidin-7(6H)-yl)-4-(dimethylamino)but-2-en-1-one]
< 100 nM: EC50 [4]

C=CC(=O)N1CCc2c(sc3ncnc(Nc4ccc(Oc5ccc6ncnn6c5)c(Cl)c4)c23)C1 [Compound 4, 1-(4-((4-([1,2,4]triazolo[1,5-a]pyridin-6-yloxy)-3-chlorophenyl)amino)-5,8-dihydropyrido[4′,3′:4,5]thieno[2,3-d]pyrimidin-7(6H)-yl)prop-2-en-1-one]
< 100 nM: EC50 [4]

CN(C)C/C=C/C(=O)N1CCc2c(sc3ncnc(Nc4ccc(Oc5ccc6ncnn6c5)c(Cl)c4)c23)C1 [Compound 5, (E)-1-(4-((4-([1,2,4]triazolo[1,5-a]pyridin-6-yloxy)-3-chlorophenyl)amino)-5,8-dihydropyrido[4′,3′:4,5]thieno[2,3-d]pyrimidin-7(6H)-yl)-4-(dimethylamino)but-2-en-1-one]
< 100 nM: EC50 [1] | EC50 [4]

Cc1ccc(Oc2ccc(Nc3ncnc4sc5c(c34)CCN(C(=O)/C=C/CN(C)C(C)(C)C)C5)cc2C)cn1 [Compound 33]
< 100 nM: EC50 [1] | GI50 [2, 6] | GI50 ([3]; Homo sapiens) | EC50 [4] | GI50 [5, 7]

Cc1ccc(Oc2ccc(Nc3ncnc4sc5c(c34)CCN(C(=O)/C=C/CN3CC4C(CO)C4C3)C5)cc2C)cn1 (centres unmarked) [Compound 34]
< 100 nM: EC50 [1] | GI50 [2, 6] | GI50 ([3]; Homo sapiens) | EC50 [4] | GI50 [5, 7]

Cc1ccc(Oc2ccc(Nc3ncnc4sc5c(c34)CCN(C(=O)/C=C/CN3CCCOCC3)C5)cc2C)cn1 [Compound 42]
< 100 nM: GI50 [2, 6] | GI50 ([3]; Homo sapiens) | GI50 [5, 7]

COc1ccc(Oc2ccc(Nc3ncnc4sc5c(c34)CCN(C(=O)/C=C/CN(C)C)C5)cc2C)cn1 [Compound 95, (E)-4-(Dimethylamino)-1-(4-((4-((6-methoxypyridin-3-yl)oxy)-3-methylphenyl)amino)-5,6-dihydropyrido[4′,3′:4,5]thieno[2,3-d]pyrimidin-7(8H)-yl)but-2-en-1-one]
< 100 nM: EC50 [1] | GI50 [2, 6] | GI50 ([3]; Homo sapiens) | EC50 [4] | GI50 [5, 7]

Cc1ccc(Oc2ccc(Nc3ncnc4sc5c(c34)C(C)CN(C(=O)/C=C/CN(C)C)C5)cc2C)cn1 (centres unmarked) [Compound 98, (E)-4-(dimethylamino)-1-(5-methyl-4-((3-methyl-4-((6-methylpyridin-3-yl)oxy)phenyl)amino)-5,8-dihydropyrido[4′,3′:4,5]thieno[2,3-d]pyrimidin-7(6H)-yl)but-2-en-1-one]
< 100 nM: GI50 [2, 6] | GI50 ([3]; Homo sapiens) | EC50 [4] | GI50 [5, 7]

Cc1ccc(Oc2ccc(Nc3ncnc4sc5c(c34)CN(C(=O)/C=C/CN(C)C)C5)cc2C)cn1 [Compound 99, (E)-4-(dimethylamino)-1-(4-((3-methyl-4-((6-methylpyridin-3-yl)oxy)phenyl)amino)-5,7-dihydro-6H-pyrrolo[3′,4′:4,5]thieno[2,3-d]pyrimidin-6-yl)but-2-en-1-one]
< 100 nM: GI50 [2, 6] | GI50 ([3]; Homo sapiens) | GI50 [5, 7]

Cc1ccc(Oc2ccc(Nc3ncnc4sc5c(c34)CCN(C(=O)/C=C/CN(C)C)CC5)cc2C)cn1 [Compound 100, (E)-4-(dimethylamino)-1-(4-((3-methyl-4-((6-methylpyridin-3-yl)oxy)phenyl)amino)-8,9-dihydro-5H-pyrimido[5′,4′:4,5]thieno[2,3-d]azepin-7(6H)-yl)but-2-en-1-one]
< 100 nM: EC50 [1] | GI50 [2, 6] | GI50 ([3]; Homo sapiens) | EC50 [4] | GI50 [5, 7]
